Results on 5 compounds are retold here after ChEMBL document CHEMBL5725591, “Tricyclic PI3K inhibitor compounds and methods of use” (2018).

pKi: −log10 of the molar value.

The term pKi denotes −log10 of the Ki, conventionally taken in molar units.

The target in the experiment is Phosphatidylinositol 4,5-bisphosphate 3-kinase catalytic subunit alpha isoform (Homo sapiens, UniProt P42336). The experiment in a line: p110alpha (alpha) PI3K Binding Assay: PI3K Binding assays are intended for determining the biochemical potency of small molecule PI3K inhibitors. The PI3K lipid kinase reaction is performed in the presence of PIP2:3PS lipid substrate (Promega #V1792) and ATP. Following the termination if the kinase reaction, turnover of ATP to ADP by the phosphorylation of the lipid substrate is detected using the Promega ADP-Glo¿ (Promega #V1792) assay. For orientation: In ADP-Glo the light output rises with the ADP produced.
Chain of Phosphatidylinositol 4,5-bisphosphate 3-kinase catalytic subunit alpha isoform (P42336 whole entry, canonical isoform): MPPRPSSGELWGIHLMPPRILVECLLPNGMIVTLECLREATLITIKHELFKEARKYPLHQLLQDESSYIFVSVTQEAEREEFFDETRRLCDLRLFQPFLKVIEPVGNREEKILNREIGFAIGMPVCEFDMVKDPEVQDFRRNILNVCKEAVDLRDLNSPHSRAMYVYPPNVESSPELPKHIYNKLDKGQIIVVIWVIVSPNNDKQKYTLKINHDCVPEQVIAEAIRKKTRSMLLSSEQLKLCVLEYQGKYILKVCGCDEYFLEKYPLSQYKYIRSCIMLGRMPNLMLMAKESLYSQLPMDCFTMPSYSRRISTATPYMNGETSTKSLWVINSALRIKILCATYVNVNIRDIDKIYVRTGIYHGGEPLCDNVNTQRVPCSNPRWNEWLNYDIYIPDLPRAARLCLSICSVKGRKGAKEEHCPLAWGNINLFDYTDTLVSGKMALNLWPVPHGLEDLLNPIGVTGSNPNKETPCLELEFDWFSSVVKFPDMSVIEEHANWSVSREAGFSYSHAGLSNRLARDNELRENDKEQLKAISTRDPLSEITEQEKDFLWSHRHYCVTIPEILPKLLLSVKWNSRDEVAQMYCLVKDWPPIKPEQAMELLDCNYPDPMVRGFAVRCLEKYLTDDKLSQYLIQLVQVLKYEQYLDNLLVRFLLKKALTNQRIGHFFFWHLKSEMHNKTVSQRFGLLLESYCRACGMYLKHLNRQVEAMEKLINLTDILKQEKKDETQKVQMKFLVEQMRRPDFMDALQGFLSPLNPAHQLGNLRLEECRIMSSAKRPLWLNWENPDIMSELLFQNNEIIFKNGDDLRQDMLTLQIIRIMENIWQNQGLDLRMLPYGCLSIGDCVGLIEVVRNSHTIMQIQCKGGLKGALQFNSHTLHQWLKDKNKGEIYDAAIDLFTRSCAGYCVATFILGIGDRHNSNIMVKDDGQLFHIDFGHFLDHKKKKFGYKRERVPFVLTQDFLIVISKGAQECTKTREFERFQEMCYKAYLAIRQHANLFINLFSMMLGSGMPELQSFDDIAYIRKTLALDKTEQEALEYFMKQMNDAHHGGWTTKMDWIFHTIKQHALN
In the case of `Cn1ncnc1-c1nc2cc(N[C@H](C(N)=O)C3CC3)cc3c2n1CCCO3`, the pKi is 6.40.

With `CC[C@@H](Oc1cc2c3c(c1)nc(-c1ccc4oc(N)nc4c1)n3CCCO2)C(N)=O` (single isomer, unassigned), the pKi is 9.10.

For the compound `Cn1cc(-c2nc3cc(N[C@H](C(N)=O)C4CC4)cc4c3n2CCCO4)cn1`, the pKi was 6.44.

On to `NC(=O)[C@@H](Nc1cc2c3c(c1)nc(-c1ccc4c(n1)OCCO4)n3CCCO2)C1CC1`, for which the pKi is 7.62.

As for `CC[C@H](Oc1cc2c3c(c1)nc(-c1ccc4oc(N)nc4c1)n3CCCO2)C(N)=O` (single isomer, unassigned), the pKi is 9.57.
